Read-outs that look alike come from different tables or passages of the source.

For 28 compounds, IC50 and EC50 results are on record in patent US9169252B2 (BRISTOL-MYERS SQUIBB COMPANY, priority 2014, dated 2015).

One assay deals with IRAK4 (Homo sapiens (Human), UniProt Q9NWZ3). Briefly: IRAK4 Inhibition Assay. The format is biochemical. The conditions noted are these: ATP 500 μM, read-out: IRAK4 IC50. As for the experimental part:
The assays were performed in U-bottom 384-well plates. […] The reaction was initiated by the combination of IRAK4 with substrates and test compounds. The reaction mixture was incubated at room temperature for 60 min. and terminated by adding 45 μL of 35 mM EDTA to each sample. The reaction mixture was analyzed on the Caliper LABCHIP® 3000 (Caliper, Hopkinton, Mass.) by electrophoretic separation of the fluorescent substrate and phosphorylated product.

Assay [1] concerns TLR2 induced IL-6 in peripheral blood mononuclear cells (PBMCs). Put plainly: PBMC TLR2 Induced IL-6 Assay. To be noted: IL-6 by ELISA; for EC50: read-out: Cell EC50; for IC50: read-out: Cell IC50. The format is cell-based, human. As to the method: PBMC TLR2 Induced IL-6 Assay
Peripheral blood mononuclear cells (PBMCs) were isolated from human blood containing the anti-coagulant EDTA (2.5 mM) by centrifugation over a FICOLL® gradient. PBMCs (250000 cells/well) were cultured in assay media (RPMI with 10% heat inactivated FCS) with compounds for 30 minutes at 37° C. in a 5% CO2 incubator. Following pretreatment with compounds, cells were stimulated for 5 hours with 10 µg/ml lipoteichoic acid (Invivogen, San Diego, Calif.), a TLR2 agonist. At the end of the culture, plates were centrifuged at 1800 rpm for 10 minutes to pellet the cells.

Setting [2] is: human PBMCs, lipoteichoic acid stimulated.
The mark [3] stands for this setting: Homo sapiens, PBMC, human PBMCs, lipoteichoic acid stimulated.
Setting [4] is: Homo sapiens, PBMC, PBMC TLR2 Induced IL-6 Assay, lipoteichoic acid stimulation.

Sequence of IRAK4 (Q9NWZ3 whole entry, species assumed): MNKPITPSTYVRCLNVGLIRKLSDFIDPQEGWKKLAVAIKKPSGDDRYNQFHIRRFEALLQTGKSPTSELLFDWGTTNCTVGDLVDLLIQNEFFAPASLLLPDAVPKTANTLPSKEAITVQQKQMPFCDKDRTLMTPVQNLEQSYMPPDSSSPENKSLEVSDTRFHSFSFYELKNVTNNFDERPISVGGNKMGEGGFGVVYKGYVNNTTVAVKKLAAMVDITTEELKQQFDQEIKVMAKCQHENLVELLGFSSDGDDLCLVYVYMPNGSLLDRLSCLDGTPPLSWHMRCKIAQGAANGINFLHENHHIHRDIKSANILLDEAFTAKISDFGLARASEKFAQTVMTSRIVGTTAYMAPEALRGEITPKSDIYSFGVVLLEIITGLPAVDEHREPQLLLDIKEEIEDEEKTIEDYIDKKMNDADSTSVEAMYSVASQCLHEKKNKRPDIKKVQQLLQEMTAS

`CC(CCF)Nc1cc(-n2ccc3cc(C#N)cnc32)ncc1C(=O)NC[C@@H](F)C(C)(C)O` (single isomer, unassigned) [Example 427]: the IC50 on IRAK4 (IRAK4 0.6 nM) worked out at 2.8 nM. Further, the EC50 in assay [1] (setting [2]) was 89 nM.
Turning to `CC(C)(O)[C@H](F)CNC(=O)c1cnc(-n2ccc3cc(C#N)cnc32)cc1NC1CCCC(CO)C1` (single isomer, unassigned) [Example 445], the IC50 at IRAK4 (IRAK4 0.6 nM) was determined as 5.3 nM. For the same compound, the EC50 in assay [1] (setting [3]) came to 108 nM.
`CC(C)CC(C)Nc1cc(-n2ccc3cc(C#N)cnc32)ncc1C(=O)NC[C@@H](F)C(C)(C)O` (single isomer, unassigned) [Example 454]: the half-inhibitory concentration (IC50) at IRAK4 (IRAK4 0.6 nM) came to 5.9 nM; in assay [1] (setting [3]), 289 nM. The EC50 in assay [1] (setting [3]) came out at 757 nM.
With `CC(O)CCNc1cc(-n2ccc3cc(C#N)cnc32)ncc1C(=O)NC[C@@H](F)C(C)(C)O` (single isomer, unassigned) [Example 461], the IC50 on IRAK4 (IRAK4 0.6 nM) amounted to 2.5 nM. In assay [1] (setting [2]), the half-maximal effective concentration (EC50) was 74 nM and the IC50 worked out at 122 nM.
As for `CC(O)CCNc1cc(-n2ccc3cc(C#N)cnc32)ncc1C(=O)NC[C@@H](F)C(C)(C)O` (single isomer, unassigned) [Example 462], the IC50 at IRAK4 (IRAK4 0.6 nM) was determined as 2.9 nM; in assay [1] (setting [2]), 398 nM. Besides, the concentration for a half-maximal effect (EC50) in assay [1] (setting [2]) came to 66 nM.
Regarding `CC(C)(O)[C@H](F)CNC(=O)c1cnc(-n2ccc3cc(C#N)cnc32)cc1NC1COCC1(F)F` (single isomer, unassigned) [Example 484], the IC50 on IRAK4 (IRAK4 0.6 nM) was determined as 3.5 nM; in assay [1] (setting [2]), 282 nM.
Take `CC(C)(O)[C@H](F)CNC(=O)c1cnc(-n2ccc3cc(C#N)cnc32)cc1NC1COCC1(F)F` (single isomer, unassigned) [Example 485]: the IC50 at IRAK4 (IRAK4 0.6 nM) turned out to be 8.7 nM; in assay [1] (setting [2]) it was 1080 nM. Moreover, in assay [1] (setting [3]), the EC50 came to 198 nM.
Consider `CC(C)CC(O)[C@H](C)Nc1cc(-n2ccc3cc(C#N)cnc32)ncc1C(=O)NC[C@@H](F)C(C)(C)O` (single isomer, unassigned) [Example 496], for which the figures for the IC50 (at IRAK4 (IRAK4 0.6 nM); in assay [1] (setting [3])) were 10.9 nM and 197 nM, respectively.
The corresponding values for `CC(C)C(O)CNc1cc(-n2ncc3cc(Cl)cnc32)ncc1C(=O)NC[C@@H](F)C(C)(C)O` (single isomer, unassigned) [Example 594] are 17.5 nM and 319 nM.
Take `CC(C)C(O)CNc1cc(-n2ncc3cc(Cl)cnc32)ncc1C(=O)NC[C@@H](F)C(C)(C)O` (single isomer, unassigned) [Example 596]: the 50% inhibitory concentration (IC50) was found to be 18.2 nM at IRAK4 (IRAK4 0.6 nM) and 578 nM in assay [1] (setting [2]).
As to `CC(C)(O)[C@H](F)CNC(=O)c1cnc(-n2ncc3cc(C#N)cnc32)cc1NC1CCC(F)(F)C1` (single isomer, unassigned) [Example 614], the IC50 on IRAK4 (IRAK4 0.6 nM) stood at 7.7 nM; in assay [1] (setting [2]) it was 491 nM. In addition, the EC50 in assay [1] (setting [3]) turned out to be 481 nM.
Regarding `CC(C)(O)[C@H](F)CNC(=O)c1cnc(-n2ncc3cc(C#N)cnc32)cc1NC1CCC(F)(F)C1` (single isomer, unassigned) [Example 615], the IC50 on IRAK4 (IRAK4 0.6 nM) was found to be 2.3 nM; in assay [1] (setting [2]), 190 nM.
Take `CC(C)(O)[C@H](F)CNC(=O)c1cnc(-n2ncc3cc(F)cnc32)cc1NC1CCC(F)C1` (single isomer, unassigned) [Example 618]: the IC50 at IRAK4 (IRAK4 0.6 nM) was 5.8 nM. Also, the EC50 in assay [1] (setting [3]) amounted to 127 nM.
As for `CC(C)(O)[C@H](F)CNC(=O)c1cnc(-n2ncc3cc(F)cnc32)cc1NC1CCC(F)C1` (single isomer, unassigned) [Example 619], the IC50 at IRAK4 (IRAK4 0.6 nM) came to 4 nM. Moreover, the EC50 in assay [1] (setting [2]) is 119 nM.
In the case of `CC(C)(O)[C@H](F)CNC(=O)c1cnc(-n2ncc3cc(C#N)cnc32)cc1N[C@@H]1C[C@H]1CO` (single isomer, unassigned) [Example 642], the values for the IC50 (at IRAK4 (IRAK4 0.6 nM); in assay [1] (setting [3])) were 4.8 nM and 197 nM, respectively.
On to `CC(C)(O)[C@H](F)CNC(=O)c1cnc(-n2ncc3cc(C#N)cnc32)cc1N[C@@H]1C[C@H]1CO` (single isomer, unassigned) [Example 643], for which the IC50 is 5.4 nM at IRAK4 (IRAK4 0.6 nM) and 320 nM in assay [1] (setting [2]).
Take `CC(C)Nc1cc(-n2ccc3cc(C#N)ccc32)ncc1C(=O)NC[C@@H](F)C(C)(C)O` [Example 1, (R)-6-(5-Cyano-1H-indol-1-yl)-N-(2-fluoro-3-hydroxy-3-methylbutyl)-4-(isopropylamino)nicotinamide]: the concentration for half-maximal inhibition (IC50) at IRAK4 (IRAK4 Inhibition Assay) came to 3.3 nM. Besides, in assay [1] (setting [4]), the EC50 amounted to 901 nM and the IC50 worked out at 873 nM.
With `CC(C)(O)[C@H](F)CNC(=O)c1cnc(-n2ccc3cc(C#N)cnc32)cc1NC1CC1` [Example 2, (R)-6-(5-cyano-1H-pyrrolo[2,3-b]pyridin-1-yl)-4-(cyclopropylamino)-N-(2-fluoro-3-hydroxy-3-methylbutyl)nicotinamide], the IC50 at IRAK4 (IRAK4 Inhibition Assay) was found to be 1.6 nM. In assay [1] (setting [4]), the EC50 came out at 8 nM and the IC50 is 26 nM.
As to `CC(C)(O)[C@H](F)CNC(=O)c1cnc(-n2ccc3cc(C#N)cnc32)cc1NC1CCOCC1` [Example 3, (R)-6-(5-cyano-1H-pyrrolo[2,3-b]pyridin-1-yl)-N-(2-fluoro-3-hydroxy-3-methylbutyl)-4-((tetrahydro-2H-pyran-4-yl)amino)nicotinamide], the IC50 at IRAK4 (IRAK4 Inhibition Assay) is 1 nM. Further, in assay [1] (setting [4]), the EC50 turned out to be 11 nM and the IC50 is 48 nM.
For the compound `CCNc1cc(-n2ccc3cc(C#N)cnc32)ncc1C(=O)NC[C@@H](F)C(C)(C)O` [Example 4, (R)-6-(5-cyano-1H-pyrrolo[2,3-b]pyridin-1-yl)-4-(ethylamino)-N-(2-fluoro-3-hydroxy-3-methylbutyl) nicotinamide], the IC50 at IRAK4 (IRAK4 Inhibition Assay) was 1.4 nM. Also, in assay [1] (setting [4]), the 50% effective concentration (EC50) is 15 nM and the IC50 came out at 157 nM.
In the case of `CC(C)(O)[C@H](F)CNC(=O)c1cnc(-n2ccc3cc(C#N)cnc32)cc1NCC(F)(F)F` [Example 5, (R)-6-(5-cyano-1H-pyrrolo[2,3-b]pyridin-1-yl)-N-(2-fluoro-3-hydroxy-3-methylbutyl)-4-((2,2,2-trifluoroethyl)amino)nicotinamide], at IRAK4 (IRAK4 Inhibition Assay), the IC50 stood at 2.3 nM. Further, in assay [1] (setting [4]), the EC50 is 78 nM and the IC50 was determined as 95 nM.
Consider `CC(C)(O)[C@H](F)CNC(=O)c1cnc(-n2ccc3cc(C#N)cnc32)cc1NC1CCC1` [Example 6, (R)-6-(5-cyano-1H-pyrrolo[2,3-b]pyridin-1-yl)-4-(cyclobutylamino)-N-(2-fluoro-3-hydroxy-3-methylbutyl) nicotinamide], for which the IC50 amounted to 1 nM at IRAK4 (IRAK4 Inhibition Assay) and 243 nM in assay [1] (setting [4]). Further, in assay [1] (setting [4]), the EC50 worked out at 243 nM.
As for `C[C@@H](CO)Nc1cc(-n2ccc3cc(C#N)cnc32)ncc1C(=O)NC[C@@H](F)C(C)(C)O` [Example 9, 6-(5-cyano-1H-pyrrolo[2,3-b]pyridin-1-yl)-N—((R)-2-fluoro-3-hydroxy-3-methylbutyl)-4-(((S)-1-hydroxypropan-2-yl)amino) nicotinamide], at IRAK4 (IRAK4 Inhibition Assay), the IC50 was 1.5 nM. In addition, in assay [1] (setting [4]), the EC50 was 57 nM and the IC50 is 43 nM.
Turning to `CC(C)(O)[C@H](F)CNC(=O)c1cnc(-n2ccc3cc(C#N)cnc32)cc1NC1CCCC1` [Example 10, (R)-6-(5-cyano-1H-pyrrolo[2,3-b]pyridin-1-yl)-4-(cyclopentylamino)-N-(2-fluoro-3-hydroxy-3-methylbutyl)nicotinamide], on IRAK4 (IRAK4 Inhibition Assay), the IC50 was 1.8 nM. In assay [1] (setting [4]), the EC50 came out at 63 nM and the IC50 came to 79 nM.
In the case of `CC(C)Nc1cc(-n2ccc3cc(C#N)cnc32)ncc1C(=O)NCCC(C)(C)O` [Example 11, 6-(5-cyano-1H-pyrrolo[2,3-b]pyridin-1-yl)-N-(3-hydroxy-3-methylbutyl)-4-(isopropylamino)nicotinamide], at IRAK4 (IRAK4 Inhibition Assay), the IC50 was 1.7 nM. Moreover, the EC50 in assay [1] (setting [4]) came to 50 nM.
As to `CC(C)(O)CCNC(=O)c1cnc(-n2ccc3cc(C#N)cnc32)cc1NC1CCOCC1` [Example 12, 6-(5-cyano-1H-pyrrolo[2,3-b]pyridin-1-yl)-N-(3-hydroxy-3-methylbutyl)-4-((tetrahydro-2H-pyran-4-yl)amino)nicotinamide], the IC50 on IRAK4 (IRAK4 Inhibition Assay) turned out to be 1.7 nM. Besides, the EC50 in assay [1] (setting [4]) turned out to be 122 nM.
Consider `CC(C)(O)[C@H](F)CNC(=O)c1cnc(-n2ccc3cc(C#N)cnc32)cc1NC12CC3CC(CC(C3)C1)C2` [Example 13, 4-((1s,3S)-adamantan-1-ylamino)-6-(5-cyano-1H-pyrrolo[2,3-b]pyridin-1-yl)-N—((R)-2-fluoro-3-hydroxy-3-methylbutyl)nicotinamide], for which, on IRAK4 (IRAK4 Inhibition Assay), the IC50 stood at 12 nM. Moreover, the EC50 in assay [1] (setting [4]) is 346 nM.
Consider `CC(C)Nc1cc(-n2ccc3cc(C#N)cnc32)ncc1C(=O)NC12CCC(O)(CC1)C2` [Example 14, 6-(5-cyano-1H-pyrrolo[2,3-b]pyridin-1-yl)-N-(4-hydroxybicyclo[2.2.1]heptan-1-yl)-4-(isopropylamino)nicotinamide], for which, on IRAK4 (IRAK4 Inhibition Assay), the IC50 came out at 14.8 nM. In assay [1] (setting [4]), the EC50 turned out to be 286 nM.
